In PMC9697930 (International Journal of Molecular Sciences, 2022):

What was measured:
CYP2C9 = biological target: T1, CYP2C9 (Homo sapiens, UniProt P11712); assay: Incubation assay with recombinant CYP (Vivid kit); type: biochemical; details: recombinant enzyme, Vivid substrate
T1 construct: purchased
Procedure: (§1) Possible interactions of examined PARPi with human CYP3A4, CYP2C8, CYP2D6, CYP1A2, CYP2B6, CYP2C9, CYP2C19, and CYP3A5 were evaluated using commercial Vivid CYP450 Screening Kits. […] CYP isoenzymes were mixed with the NADPH-regeneration system, and resulting solutions were added to the wells. After 10 min preincubation, the solution of NADP ^+ and a particular Vivid substrate were added to start the CYP-catalyzed reaction. Fluorescence corresponding to the levels of produced metabolites was detected using the microplate reader Infinite […] (Tecan, Männedorf, Switzerland) in a kinetic mode (1-minute intervals). The data from the 15 min interval were selected to analyze the results.

CYP2C19 = biological target: T2, CYP2C19 (Homo sapiens, UniProt P33261); assay: Incubation assay with recombinant CYP (Vivid kit); type: biochemical; details: recombinant enzyme, Vivid substrate
T2 construct: purchased
T2 sequence (P33261 whole entry): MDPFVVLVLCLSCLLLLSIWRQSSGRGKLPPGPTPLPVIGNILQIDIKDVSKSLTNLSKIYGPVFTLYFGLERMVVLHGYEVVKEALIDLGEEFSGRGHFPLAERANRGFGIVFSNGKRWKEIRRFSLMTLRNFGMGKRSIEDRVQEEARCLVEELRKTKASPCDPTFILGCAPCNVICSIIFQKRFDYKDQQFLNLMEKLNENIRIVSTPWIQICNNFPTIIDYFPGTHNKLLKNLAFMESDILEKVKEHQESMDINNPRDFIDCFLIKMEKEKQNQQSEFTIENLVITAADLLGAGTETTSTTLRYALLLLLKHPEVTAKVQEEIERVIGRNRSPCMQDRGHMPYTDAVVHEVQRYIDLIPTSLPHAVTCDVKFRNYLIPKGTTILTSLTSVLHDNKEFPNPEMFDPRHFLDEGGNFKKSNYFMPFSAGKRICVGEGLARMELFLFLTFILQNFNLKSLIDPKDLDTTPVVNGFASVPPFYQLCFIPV
Procedure: as §1

CYP3A5 = biological target: T3, CYP3A5 (Homo sapiens, UniProt P20815); assay: Incubation assay with recombinant CYP (Vivid kit); type: biochemical; details: recombinant enzyme, Vivid substrate
T3 construct: purchased
T3 sequence (P20815 whole entry): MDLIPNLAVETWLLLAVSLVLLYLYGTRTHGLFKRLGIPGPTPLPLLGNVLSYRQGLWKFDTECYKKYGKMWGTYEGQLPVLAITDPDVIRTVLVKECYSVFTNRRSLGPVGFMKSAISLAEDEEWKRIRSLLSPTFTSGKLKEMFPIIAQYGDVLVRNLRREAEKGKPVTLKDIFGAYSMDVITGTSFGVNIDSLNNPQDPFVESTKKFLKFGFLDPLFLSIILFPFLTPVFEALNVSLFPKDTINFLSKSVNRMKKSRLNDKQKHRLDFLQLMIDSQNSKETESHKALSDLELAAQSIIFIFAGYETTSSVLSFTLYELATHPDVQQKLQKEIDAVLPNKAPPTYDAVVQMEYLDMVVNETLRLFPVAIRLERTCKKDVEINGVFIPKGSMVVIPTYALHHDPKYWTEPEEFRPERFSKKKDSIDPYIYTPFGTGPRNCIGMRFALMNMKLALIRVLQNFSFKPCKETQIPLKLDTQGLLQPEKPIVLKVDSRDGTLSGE
Procedure: as §1

ABCG2 [1] = details: Abcg2-knockout mice, MDCKII-ABCG2 cells; cited from earlier work
ABCB1 = ABCB1 (Homo sapiens, UniProt P08183); details: 12-days exposure; MCF-10A; cited from earlier work
ABCB1, sequence (P08183 whole entry): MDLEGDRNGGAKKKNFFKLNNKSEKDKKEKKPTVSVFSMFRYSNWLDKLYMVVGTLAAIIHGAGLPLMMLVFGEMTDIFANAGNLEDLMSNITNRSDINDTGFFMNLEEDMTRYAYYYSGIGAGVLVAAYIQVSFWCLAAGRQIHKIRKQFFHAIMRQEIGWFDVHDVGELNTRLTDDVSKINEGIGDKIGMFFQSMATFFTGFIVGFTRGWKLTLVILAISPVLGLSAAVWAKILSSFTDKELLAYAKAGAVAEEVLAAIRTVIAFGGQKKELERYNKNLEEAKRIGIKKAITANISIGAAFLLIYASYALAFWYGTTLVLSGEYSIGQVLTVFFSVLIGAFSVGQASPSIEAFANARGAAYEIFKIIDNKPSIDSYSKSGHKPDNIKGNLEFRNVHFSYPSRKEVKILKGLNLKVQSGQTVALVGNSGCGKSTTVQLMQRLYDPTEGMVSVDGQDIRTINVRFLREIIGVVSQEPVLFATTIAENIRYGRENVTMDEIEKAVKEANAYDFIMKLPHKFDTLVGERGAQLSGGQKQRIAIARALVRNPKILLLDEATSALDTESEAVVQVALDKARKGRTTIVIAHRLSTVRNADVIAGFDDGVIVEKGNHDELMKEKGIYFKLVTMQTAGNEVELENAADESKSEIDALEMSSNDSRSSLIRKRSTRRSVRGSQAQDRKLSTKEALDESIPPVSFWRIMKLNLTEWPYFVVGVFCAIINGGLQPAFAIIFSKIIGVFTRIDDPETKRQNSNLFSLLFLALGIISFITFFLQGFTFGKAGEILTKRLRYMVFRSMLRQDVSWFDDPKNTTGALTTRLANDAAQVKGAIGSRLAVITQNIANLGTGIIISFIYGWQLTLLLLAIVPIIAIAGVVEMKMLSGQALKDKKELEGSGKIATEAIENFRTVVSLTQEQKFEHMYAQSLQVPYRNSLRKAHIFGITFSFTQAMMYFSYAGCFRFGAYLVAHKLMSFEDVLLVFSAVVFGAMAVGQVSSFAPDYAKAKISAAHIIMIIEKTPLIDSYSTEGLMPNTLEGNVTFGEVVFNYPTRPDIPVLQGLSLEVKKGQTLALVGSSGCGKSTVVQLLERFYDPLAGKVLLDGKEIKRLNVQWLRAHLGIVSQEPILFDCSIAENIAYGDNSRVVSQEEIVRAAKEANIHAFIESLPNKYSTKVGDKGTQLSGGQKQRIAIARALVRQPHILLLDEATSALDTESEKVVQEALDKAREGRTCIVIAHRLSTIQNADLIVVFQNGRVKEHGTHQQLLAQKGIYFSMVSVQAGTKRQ

ABCG2 [2] = biological target: T4, ABCG2 (Homo sapiens, UniProt Q9UNQ0); assay: Accumulation assay with mitoxantrone in MDCKII-ABCG2 cells; type: cell-based; details: normalized to Ko143, read-out: ABCG2 inhibition IC50
T4 construct: expressed in transfected cells; host or cells: MDCKII (canine kidney) subline MDCKII-ABCG2, gift of Dr. Alfred Schinkel
T4 sequence (Q9UNQ0 whole entry): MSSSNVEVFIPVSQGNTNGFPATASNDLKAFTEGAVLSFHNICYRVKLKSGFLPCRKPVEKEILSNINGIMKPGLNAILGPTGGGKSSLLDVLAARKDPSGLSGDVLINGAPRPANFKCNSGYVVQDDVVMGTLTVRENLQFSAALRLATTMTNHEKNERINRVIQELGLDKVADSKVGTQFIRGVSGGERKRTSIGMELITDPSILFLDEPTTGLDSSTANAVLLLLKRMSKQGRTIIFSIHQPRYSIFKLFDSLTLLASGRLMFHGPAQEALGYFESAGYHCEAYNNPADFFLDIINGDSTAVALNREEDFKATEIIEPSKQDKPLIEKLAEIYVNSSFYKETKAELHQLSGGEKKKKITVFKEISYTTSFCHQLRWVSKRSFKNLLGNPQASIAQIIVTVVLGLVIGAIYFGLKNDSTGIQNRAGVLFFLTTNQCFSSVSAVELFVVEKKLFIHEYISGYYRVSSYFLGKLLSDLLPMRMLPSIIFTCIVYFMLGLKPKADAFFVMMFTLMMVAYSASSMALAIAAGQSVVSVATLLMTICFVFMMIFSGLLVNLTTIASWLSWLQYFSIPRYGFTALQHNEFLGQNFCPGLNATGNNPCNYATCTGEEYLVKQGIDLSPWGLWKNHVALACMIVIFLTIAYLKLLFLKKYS
Procedure: The conduction of accumulation assays followed the slightly changed protocol described previously. In the study, MDCKII-par, MDCKII-ABCB1, MDCKII-ABCC1, MDCKII-ABCG2, and primary explants were seeded into 12-well plates in variant densities, 22.0 × 10^4, 15.0 × 10^4, 25.0 × 10^4, 22.0 × 10^4, and 15.0 × 10^4 cells/well, respectively. After 24 h incubation, two washing steps with 1 × PBS were applied. […] The cells were then incubated under standard conditions for 30 min. Next steps included placing the plates on ice, washing the cells with ice-cold 1 × PBS two-times, and detaching the cells with the ice-cold 10 × trypsin without phenol red. Following trypsinization, cells were resuspended in 1 × PBS containing 2% FBS. Subsequently, cell suspensions were transferred into the test tubes and kept on ice. The fluorescence in cells was measured immediately after the collection of their suspensions using flow cytometer Sony SA3800 Spectral Cell Analyzer (Sony Biotechnology, San Jose, CA, USA). SA3800 software (Sony Biotechnology, San Jose, CA, USA) was used to evaluate the data.

[3] = test system: patient-derived NSCLC explants; assay: Accumulation of mitoxantrone and daunorubicin in ex vivo explants; type: cell-based, human; details: 5 µM talazoparib, 2 µM Ko143, 25 µM MK571
Excerpt: NSCLC specimens from lung lobectomies were donated by patients at the Department of Cardiac Surgery, University Hospital Hradec Kralove. All the patients signed the informed consent; its formulation was approved by the University Hospital Ethics Committee (study no. 202002 […]). The NSCLC malignant tissues were excised from lung lobes by the pathologist immediately after the surgery. Then, NSCLC primary explants were generated according to the established protocols. First, the tumor tissues were cut into small pieces by scalpel. Then, the cells were released from the tissue by the 0.1% collagenase in 1 × MEM at 37 °C for 30 min. Subsequently, 1% BSA in MEM (v/v) was added, and cells were filtered through a 40 μm pore-sized cell strainer. The resulting solution was centrifuged at 200 × g for 5 min and the pellet was resuspended in 1% BSA in MEM. The centrifugation (100 × g for 10 min) in Ficoll Paque Plus was used for removing biological impurities such as cell debris, etc. Next, the NSCLC cells were collected and transferred into c-based media. The additional centrifugation (200 × g for 5 min) was applied to remove the traces of Ficoll solution. […] The fluorescence in cells was measured immediately after the collection of their suspensions using flow cytometer Sony SA3800 Spectral Cell Analyzer (Sony Biotechnology, San Jose, CA, USA). […]

[4] = in-human mass-balance study; cited from earlier work
A431-ABCB1 = assay: MTT proliferation assay; type: cell-based; details: Homo sapiens, comparative MTT, 48 h, read-out: antiproliferative IC50
Procedure: The viability MTT assay was employed in several experimental sets, including induction studies, comparative viability assays, and drug combinations. First, 1.3 × 10^4 (MDCKII sublines), 1.2 × 10^4 (A431 sublines), 1.5 × 10^4 (MCF-7), and 1.0 × 10^4 (primary NSCLC explants) cells were seeded in 96-well plates. After seeding, cells were left to refresh in incubator for 24 h. Secondly, the medium was removed, and the serial dilutions of the drugs or drug combinations were added to the cells. Next to these variants, a medium with 40% DMSO and vehicle-containing media were tested as nonviable and unaffected viability controls, respectively. After an additional 48 h of incubation, the cells were washed with 1 × PBS and then treated with 1 mg/mL MTT solution in Opti-MEM. Subsequently, cells were incubated for 60 min under standard conditions. After MTT treatment, generated formazan crystals were solubilized with DMSO for 10 min. Wavelengths of 570 nm (formazan) and 690 nm (background) were used for absorbance measurements using a microplate reader Infinite 200 Pro NanoQuant (Tecan, Männedorf, Switzerland).

T1 sequence (P11712 whole entry): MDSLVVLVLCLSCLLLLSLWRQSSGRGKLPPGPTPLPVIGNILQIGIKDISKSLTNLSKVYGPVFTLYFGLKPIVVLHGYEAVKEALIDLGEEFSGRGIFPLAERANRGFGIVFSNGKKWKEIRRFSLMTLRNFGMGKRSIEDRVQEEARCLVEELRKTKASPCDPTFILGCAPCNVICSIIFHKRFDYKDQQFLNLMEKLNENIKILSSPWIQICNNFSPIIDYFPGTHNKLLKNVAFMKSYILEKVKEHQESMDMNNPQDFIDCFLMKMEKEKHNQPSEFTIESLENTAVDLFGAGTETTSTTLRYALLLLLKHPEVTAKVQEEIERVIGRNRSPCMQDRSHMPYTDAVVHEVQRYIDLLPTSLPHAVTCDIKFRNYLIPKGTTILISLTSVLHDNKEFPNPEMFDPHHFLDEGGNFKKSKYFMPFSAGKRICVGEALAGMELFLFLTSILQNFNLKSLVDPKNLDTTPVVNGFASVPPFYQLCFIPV

IC50 (CYP2C9): > 50 µM
IC50 (CYP2C19): > 50 µM
IC50 (CYP3A5): > 50 µM
IC50 (A431-ABCB1): 92.7 µM
Compound: Cn1ncnc1[C@H]1c2n[nH]c(=O)c3cc(F)cc(c23)N[C@@H]1c1ccc(F)cc1 [talazoparib, Talazoparib]
ABCG2 substrate status (ABCG2 [1]): not of ABCG2
effect on ABCB1 mRNA (ABCB1): upregulate
effect on ABCB1 protein level (ABCB1): fluctuating (concentration-dependent induction or downregulation)
IC50 (ABCG2 [2]): 11.2 µM
effect on cytostatic efflux / accumulation ([3]; primary cultures with high expression of ABCG2/ABCC1): significantly inhibited cytostatic efflux
effect on cytostatic efflux / accumulation ([3]; primary cultures with low expression of ABCG2/ABCC1): insignificant accumulation changes
excretion [4]: a major fraction of the dose is excreted renally and biliary in unchanged form
extent of metabolism [4]: minimally metabolized
